From patent US6737425B1, “N,N-substituted cyclic amine derivatives” (Eisai Co., Ltd., priority 1998, dated 2004) come the findings set out here.

Structures are written as SMILES.

One test concerns mice in a formalin test. In words: Antalgic effect (I) on mice in a formalin test. Format: in vivo. As to conditions: for average left hind leg-licking time, Mean: formalin 5 minutes later, measured for 5 minutes. How it is done:
Antalgic Effect (I) on Mice in a Formalin Test
The antalgic action of the typical example of the compound of the present invention (Example 1) when intravenously administered was examined in the formalin test using mice (3).
ddy Mice (male, 4-week-old) purchased from Nippon SLC Ltd. were used in the experiment.
20.4 mg of the test compound was weighed, and 10.2 ml of 5.28% mannitol was added thereto to prepare 2 mg/ml (20 mg/kg) solution. Then, 3.8 ml of 5.28% mannitol was added to 3.8 ml of the 2 mg/ml solution to prepare 1 mg/ml (10 mg/kg) solution. Finally, 2.5 ml of 5.28% mannitol was added to 2.5 ml of the 1 mg/ml solution to prepare 0.5 mg/ml (5 mg/kg) solution. This test compound was weighed and prepared on the day when the experiment was conducted.
30 μl of commercial 35.0 to 38.0% formaldehyde was added to 970 μl physiological saline. The resulting solution was used as 3% formalin. Because the indicated purity of this commercial formaldehyde is 35.0 to 38.0%, the 3% formalin presently prepared and used is accurately 2.84 to 3.08% formalin.
The treatment group in this test consisted of 4 groups in total, that is, a control group, a 5 mg/kg test compound administration group, a 10 mg/kg administration group, and a 20 mg/kg administration group, and each group consisted of 5 animals.
The control group was given 0.1 ml of 5.28% mannitol per 10 g of the body weight. The test compound was administered at each concentration (0.5 mg/ml, 1 mg/ml, and 2 mg/ml) in an volume of 0.1 ml per 10 g of the body weight into the 5 mg/kg group, 10 mg/kg group and 20 mg/kg group, respectively.
5.28% mannitol was administered via the tail vein into each group given the compound of the present invention or into the control group, and the animals were placed in a transparent plastic observation cage. 5 minutes later, 20 μl of 3% formalin was subcutaneously administered into the bottom of the left hind leg of each mouse. The duration of the behavior of mouse's licking the left hind leg after administration of formalin was measured for 5 minutes and used as an indication of pain. The duration was expressed in second.
In the significant test, parametric one-way layout analysis of variance was conducted and then Dunnet-type multiple comparison was made (*: 0.01<p<0.05, **: p<0.01, vs. the control group). For the test, a statistical analysis assistant system with SAS 6.12 (SAS Institute Japan Ltd., Tokyo) integrated in it was used.

Test [1] has as its system glutamic acid release from rat cerebral cortex slices. Kind of test: Inhibitory activity on glutamic acid release (cerebral cortex slices, high-conc. KCl). It is filed as cell-based. The settings on record: glutamic acid release induced with 50 mM KCl, HPLC. Here is the method: Inhibitory Activity on Glutamic Acid Release
Cerebral cortexes were isolated from SD strain male rats (8-week-old) and used to prepare 300 μm×300 μm slices by use of a slice chopper. The prepared slices were incubated at 37° C. for 30 minutes in solution C (120 mM NaCl, 4 mM KCl, 10 mM MgSO4, 16 mM NaHCO3, 10 mM glucose, 1 mM NaH2PO4, 10 mM HEPES-NaOH pH 7.4) in the presence of 95% O2/5% CO2. Thereafter, solution C was exchanged with fresh one, followed by further incubation for 30 minutes.
The cerebral cortex slices were incubated in a 24-wells plate for cell culture according to a multi-well method (Brain Res., 402, 255-263, 1987), and the release of glutamic acid was induced with 50 mM KCl. Solution D (120 mM NaCl, 4 mM KCl, 1.2 mM CaCl2, 1 mM MgSO4, 16 mM NaHCO3, 10 mM glucose, 1 mM NaH2PO4, 10 mM HEPES-NaOH pH 7.4) was aerated with 95% O2/5% CO2 and kept at 37° C. and used in this experiment. 50 mM KCl containing the same total amount of K^+ and Na^+ was prepared. Slices corresponding to 1 to 2 mg protein were placed on an upper cup provided with a mesh at the bottom, and 1.3 ml solution C or 50 mM KCl solution was introduced into a lower well, and the upper cup was transferred to a new well. 20 minutes before and 5 minutes after reaction was intiated, the test compound was added to solution D or 50 mM KCl.
Glutamic acid was quantified by HPLC using fluorescent etor (Ex. 330 nm Em. […]). The eluting solvent used was prepared by diluting 150 ml sodium citrate buffer for automatic amino acid analysis (Wako Pure Chemical Industries) 10-fold with distilled water, then adding MgCl2 thereto at the final concentration of 50 mM, and further diluting it twice with acetonitrile. The flow rate was 2.0 ml/min. The column used was Asahipak (ES-502N Denko, K. K.). The glutamic acid was converted into a derivative by addition, to 50 μl sample, of 50 μl deriving agent (10 mg o-phthalaldehyde/500 μl MeOH, 10 μl b-mercaptopropionic acid, 0.15 M sodium borate buffer pH 9.5, 100 μl) followed by stirring (Neuroscience Lett., 96, 202-206, 1989).

As for `CC(C)C(C#N)(CCCN1CCN(CCOc2ccc(F)cc2)CC1)c1ccccc1` (centres unmarked) [Example 1, 1-[(4-Cyano-5-methyl-4-phenyl)hexyl]-4-[2-(4-fluorophenoxy)ethyl]piperazine], the “average left hind leg-licking time, Mean” value in the test on mice in a formalin test (5 mg/kg i.v. (tail vein)) was 49.4 s; with mice in a formalin test (10 mg/kg i.v. (tail vein)), 23.6 s; in the test with mice in a formalin test (20 mg/kg i.v. (tail vein)), 2.2 s. In addition, the “licking time compared to the control group” value with mice in a formalin test (5 mg/kg, 10 mg/kg and 20 mg/kg i.v.) is reported as “statistically significant reduction in licking time”. The molecule also registered an IC50 in test [1] of 3.5 µM.
